Reference: US7316816B2, “Temperature and pH sensitive copolymers” (Agency for Science Technology and Research, priority 2004, dated 2008)

Legend:
[1] = In vitro drug release by dialysis; type: physicochemical; conditions: pH 7.4 and 6.0
Protocol: DOX release from the nanoparticles was studied at pH 6.0, 6.6 and 7.4. A certain amount of DOX-loaded freeze-dried nanoparticles was dispersed in 200 μL of the respective buffer solution and allowed to stabilize for 30 minutes before being placed in a dialysis membrane with a molecular weight cut-off of 2000 (Spectra/Por). The dialysis bag was then immersed in 25 mL of PBS with pH 6.0, 6.6 or 7.4 at 37° C. The samples were drawn at specific time intervals and the drug concentration was analyzed using the UV-VIS spectrophotometer as stated in paragraph A(vi) of the present example.

[2] = cited from earlier work

COc1cccc2c1C(=O)c1c(O)c3c(c(O)c1C2=O)C[C@@](O)(C(=O)CO)C[C@@H]3O[C@H]1C[C@H](N)[C@H](O)[C@H](C)O1 [DOX, doxorubicin]
effect of pH on release of free DOX from the dialysis bag [1]: no significant effect of pH

Nc1nc2ncc(CNc3ccc(C(=O)N[C@@H](CCC(=O)O)C(=O)O)cc3)nc2c(=O)[nH]1 [Folic acid]
pKa [2]: ~5.4
